# Measurements reported in publication PMC10859961, “Ir(III) Half-Sandwich Photosensitizers with a π-Expansive Ligand for Efficient Anticancer Photodynamic Therapy” (Journal of Medicinal Chemistry, 2024).
# Values joined by “and” are separate entries in the source; they are usually repeats but may differ in a detail not shown here. Equal values may be shown once.
# Tests used:
# [1] = Stability in DMEM (UV-vis); assay type: physicochemical; settings: DMEM without phenol red; dark; 48 h
# Procedure: The stability of the complexes in biological media was studied by UV–vis spectroscopy. Complexes 1 and 2 were dissolved in DMSO and complexes 3–8 were dissolved in MeOH at 1.0 × 10^–3 M and then diluted to 1.0 × 10^–5 M with Dulbecco’s modified Eagle’s medium (DMEM) without phenol red (Corning) (the final concentration of DMSO or MeOH was 1%). The solutions were studied in the dark and under blue light irradiation (470 nm).
# [2] = Stability and photostability studies by 1H NMR; assay type: physicochemical
# Procedure: Solutions of complexes 1 and 6 at 3.2 mM and 2 at 0.6 mM in DMSO-d6 and DMSO-d6/D2O mixture (9:1, v/v) were prepared.
# [3] = Reactivity of 1w with n-Bu4NCl (1H NMR); assay type: physicochemical; settings: 100 equivalents of n‐Bu4NCl
# Procedure: A solution of 1w (3.0 mM) with 100 equiv of n-Bu4NCl (300 mM) in a DMSO-d6/D2O (9:1, v/v) mixture was monitored by NMR spectroscopy at room temperature and at 60 °C.
# [4] = pKa determination (absorbance vs pH); assay type: physicochemical; settings: DMSO/H2O (2/98, v/v), Bu4NBF4 5 mM; piperidine ring
# Procedure: Solutions of complexes 5 and 6 (2.00 × 10^–5 M) and Imepip ligand (2.00 × 10^–3 M) in H2O/DMSO (98/2, v/v) mixture with n-Bu4NBF4 (5 mM) were prepared. The presence of the salt ensured the conductivity of the media. Evolution of the peaks was studied at different pH by recording the absorbance spectrum. Aliquots of 10 μL of HCl (0.002–0.020 M) or NaOH (0.002–0.020 M) were added to a solution of 2.4 mL of complex to vary the pH. The absorbance versus pH plot enables us to determine one constant according to the equation from the Wilson and Lester method (eq 2):[146] [drawing 23] 2 where Aa is the absorbance for the acid species, Ab is the absorbance for the basic species, and Am is the absorbance of the mixture. The intersection obtained by representing log(Am – Aa)/(Ab – Am) versus pH provides the pKa.
# A549 cells [5] = assay: Cell internalization (iridium content by ICP-MS); assay type: cell-based, human; settings: for iridium content in cells: 10 μM, 1 h
# Procedure: To assess the cell internalization mechanism, 8 × 10^6 A549 cells were incubated with complex 6 at 10 μM for 1 h in the dark under different conditions: (i) at 37 °C (positive control cells), (ii) at 37 °C in the presence of CCCP (50 μM) (to inhibit mitochondrial ATP production) or (iii) at 4 °C (to inhibit cellular metabolism). The cells incubated with medium alone were included as negative control. Then, the cells were washed twice with PBS, detached with trypsin, and centrifuged to obtain the whole cell pellet. […] The iridium amount in the samples was then determined by inductively coupled plasma mass spectrometry (ICP-MS) analysis. To this end, the cell pellets were dissolved in 400 μL of 69% v/v nitric acid (PanReac Applichem) and heated in a water bath at 100 °C for 18 h. Samples were then allowed to cool and diluted with Milli-Q water to a final volume of 10 mL. […] Iridium content was measured on an ICP-MS Agilent 7500c instrument at the Serveis Tècnics de Recerca, Universitat de Girona. The solvent used for all ICP-MS experiments was Milli-Q water with 2% superpure grade HNO3. The iridium standard (high purity standards, 1000 μg/mL ± 2 μg/mL in 5% hydrochloric acid in low TOC water (<50 ppb)) was diluted with 2% HNO3 to 400 ppb. Iridium standards were freshly prepared in Milli-Q water with 2% HNO3 before each experiment. The concentrations used for the calibration curve were 0, 1, 2, 5, 10, and 20 ppb. The isotope detected was 193Ir and readings were done in triplicate. Rhodium was added as an internal standard at a concentration of 10 ppb to all samples. All of the experiments were performed by duplicate.
# A549 cells [6] = assay: Cell death mechanism (Annexin V-FITC / propidium iodide); assay type: cell-based, human; settings: photoactivated
# Procedure: The cell death mechanism was analyzed with the Vybrant Apoptosis Assay Kit (Molecular Probes). A549 cells seeded in 12-well plates at a density of 1 × 10^5 cells per well were treated with complex 6 at the corresponding IC50,light × 5 under photoactivation conditions. Cisplatin at 50 μM was used as positive control. 4 and 20 h after the irradiation, cells were collected by trypsinization and immediately stained with Annexin V-FITC and propidium iodide according to the manufacturer’s instructions. The median fluorescence of 10,000 cells of each sample was analyzed by flow cytometry. Annexin-FITC staining was detected at a wavelength of 520 nm (FL1) and propidium iodide was detected at 617 nm (FL2).
# A549 cells [7] = assay: Subcellular distribution (cell fractionation, ICP-MS); assay type: cell-based, human; settings: 10 μM, 4 h, 37 °C
# Procedure: The intracellular distribution of complex 6 was explored by measuring the iridium content in different cellular compartments: nucleus, membrane/particulate (which includes cellular organelles and organelle’s membrane proteins), cytosol, and cytoskeleton. To this end, 8 × 10^6 A549 cells were incubated with 6 at 10 μM for 4 h in the dark at 37 °C. Then, the cells were washed twice with PBS, detached with trypsin, and centrifuged to obtain the whole cell pellet. The viability of the cells was assessed through Trypan blue staining, which confirmed that over 95% of the cells were viable. The different cell fractions were then isolated using the FractionPREP Cell Fractionation kit (BioVision) and the total iridium content in each fraction was measured by ICP-MS in two independent experiments, as described above.
smiles,measurement,setting,value
"Cc1c(C)c(C)[c-](C)c1C.[Cl][Ir]1[c]2cccc3c4nc5ccccc5nc4c4ccc[n+]1c4c23 [complex 1, [(η^5-C5Me5)IrCl(pbpz)]]",stability in DMEM (UV–vis changes),[1],minor change
same,"Percentage of species (chlorido complex remaining / aqua adduct formed), 1H NMR","[2]; DMSO‐d6, dark, 0 h",100%
same,"Percentage of species (chlorido complex remaining / aqua adduct formed), 1H NMR","[2]; DMSO‐d6, dark, 0.5 h",78%
same,"Percentage of species (chlorido complex remaining / aqua adduct formed), 1H NMR","[2]; DMSO‐d6, dark, 1 h",76%
same,"Percentage of species (chlorido complex remaining / aqua adduct formed), 1H NMR","[2]; DMSO‐d6, dark, 1.5 h",75%
same,"Percentage of species (chlorido complex remaining / aqua adduct formed), 1H NMR","[2]; DMSO‐d6, dark, 2.5 h",72%
same,"Percentage of species (chlorido complex remaining / aqua adduct formed), 1H NMR","[2]; DMSO‐d6, dark, 4.5 h",71%
same,"Percentage of species (chlorido complex remaining / aqua adduct formed), 1H NMR","[2]; DMSO‐d6, dark, 6 h",70%
same,"Percentage of species (chlorido complex remaining / aqua adduct formed), 1H NMR","[2]; DMSO‐d6, dark, 8 h",69%
same,"Percentage of species (chlorido complex remaining / aqua adduct formed), 1H NMR","[2]; DMSO‐d6, dark, 10 h",68%
same,"Percentage of species (chlorido complex remaining / aqua adduct formed), 1H NMR","[2]; DMSO‐d6, dark, 32 h",57%
same,"Percentage of species (chlorido complex remaining / aqua adduct formed), 1H NMR","[2]; DMSO‐d6, dark, 50 h",49%
same,"Percentage of species (chlorido complex remaining / aqua adduct formed), 1H NMR","[2]; DMSO‐d6, dark, 70 h",40%
same,"Percentage of species (chlorido complex remaining / aqua adduct formed), 1H NMR","[2]; DMSO‐d6, dark, 97 h",35%
same,"Percentage of species (chlorido complex remaining / aqua adduct formed), 1H NMR","[2]; DMSO‐d6/D2O (9/1), dark, 0 h",100%
same,"Percentage of species (chlorido complex remaining / aqua adduct formed), 1H NMR","[2]; DMSO‐d6/D2O (9/1), dark, 0.5 h",4%
same,"Percentage of species (chlorido complex remaining / aqua adduct formed), 1H NMR","[2]; DMSO‐d6/D2O (9/1), dark, 1 h",0.5%
same,"Percentage of species (chlorido complex remaining / aqua adduct formed), 1H NMR","[2]; DMSO‐d6/D2O (9/1), dark, 1.5 h",0%
same,"Percentage of species (chlorido complex remaining / aqua adduct formed), 1H NMR","[2]; DMSO‐d6/D2O (9/1), dark, 2.5 h",0%
same,"Percentage of species (chlorido complex remaining / aqua adduct formed), 1H NMR","[2]; DMSO‐d6/D2O (9/1), dark, 4.5 h",0%
same,"Percentage of species (chlorido complex remaining / aqua adduct formed), 1H NMR","[2]; DMSO‐d6/D2O (9/1), dark, 6 h",0%
same,"Percentage of species (chlorido complex remaining / aqua adduct formed), 1H NMR","[2]; DMSO‐d6/D2O (9/1), dark, 8 h",0%
same,"Percentage of species (chlorido complex remaining / aqua adduct formed), 1H NMR","[2]; DMSO‐d6/D2O (9/1), dark, 10 h",0%
same,"Percentage of species (chlorido complex remaining / aqua adduct formed), 1H NMR","[2]; DMSO‐d6/D2O (9/1), dark, 32 h",0%
same,"Percentage of species (chlorido complex remaining / aqua adduct formed), 1H NMR","[2]; DMSO‐d6/D2O (9/1), dark, 50 h",0%
same,"Percentage of species (chlorido complex remaining / aqua adduct formed), 1H NMR","[2]; DMSO‐d6/D2O (9/1), dark, 70 h",0%
same,"Percentage of species (chlorido complex remaining / aqua adduct formed), 1H NMR","[2]; DMSO‐d6/D2O (9/1), dark, 97 h",0%
same,chloride complex 1 formed back from 1w,"[3]; 60 °C, 15 minutes",approximately 15%
same,chloride complex 1 formed back from 1w,"[3]; room temperature, 4 days",2%
"Cc1c(C)c(C)[c-](C)c1C.F[B-](F)(F)F.c1ccc2nc3c4ccc[n+]5c4c4[c](cccc4c3nc2c1)[Ir]5[n+]1ccn(CCN2CCCCC2)c1 [complex 5, [(η^5-C5Me5)Ir(Imepip)(pbpz)]BF4]",pKa,[4],7.2 and 7.19
"Cc1c(C)c(C)[c-](C)c1C.F[B-](F)(F)F.c1ccc2cc3nc4c5ccc[n+]6c5c5[c](cccc5c4nc3cc2c1)[Ir]6[n+]1ccn(CCN2CCCCC2)c1 [complex 6, [(η^5-C5Me5) Ir(Imepip)(pbpn)]BF4]",pKa,[4],7.8 and 7.85
same,release of the N-donor ligand (1H NMR),"[2]; DMSO-d6/D2O (9/1), dark or blue, green or red light irradiation",not observed
same,iridium content in cells,A549 cells [5]; 4 °C,18.0 ± 3 ng/10^6 cells
same,iridium content in cells,"A549 cells [5]; 37 °C, no inhibition",87.6 ± 4 ng/10^6 cells
same,iridium content in cells,A549 cells [5]; CCCP pretreatment,17.6 ± 2 ng/10^6 cells
same,reduction of iridium content vs 37 °C,A549 cells [5]; at 4 °C or with CCCP pretreatment,approximately 80%
same,"cells in early apoptosis (AN+; IP−), lower right quadrant","A549 cells [6]; IC50,light × 5, 4 h",1.7%
same,"cells in late apoptosis (AN+; IP+), upper right quadrant","A549 cells [6]; IC50,light × 5, 4 h",15.8%
same,"cells in necrosis (AN–; IP+), upper left quadrant","A549 cells [6]; IC50,light × 5, 4 h",6.4%
same,"cells in late apoptosis (AN+; IP+), upper right quadrant","A549 cells [6]; IC50,light × 5, 20 h",43.2%
same,"cells in necrosis (AN–; IP+), upper left quadrant","A549 cells [6]; IC50,light × 5, 20 h",10.4%
same,iridium in cytoskeletal fraction,A549 cells [7],11.0 ± 4 ng Ir/10^6 cells
same,iridium in cytosolic fraction,A549 cells [7],4.6 ± 2 ng Ir/10^6 cells
same,iridium in membrane/organelles fraction,A549 cells [7],140.8 ± 20 ng Ir/10^6 cells
same,iridium in nuclear fraction,A549 cells [7],7.1 ± 4 ng Ir/10^6 cells
